Data set [1] relates to rat. The settings on record: Chronic toxicity, fischer, Oral, Gavage/Intubation, dose end: 2 year, group: systemic.
Data set [2] relates to mouse. The conditions noted are these: Subchronic oral toxicity in rodents, b6c3f1, Gavage/Intubation, dose end: 13 week, group: systemic.
Data set [3] concerns mouse. The settings on record: Chronic toxicity; b6c3f1; Oral; Gavage/Intubation; dose end: 2 year; group: systemic; systemic / pathology microscopic / kidney / necrosis + systemic / pathology microscopic / kidney / regeneration + systemic / pathology ….
Data set [4] relates to rat. The conditions noted are these: Subchronic oral toxicity in rodents, fischer, Gavage/Intubation, dose end: 13 week, group: systemic.
Data set [5] has as its system rat. The conditions noted are these: Subchronic dermal toxicity, sprague dawley, Topical, dose end: 91 day, group: systemic, systemic / in life observation / clinical signs / skin ulceration.
Data set [6] relates to rat. The conditions noted are these: Sub-acute dermal toxicity, sprague dawley, Topical, dose end: 2 week, group: systemic, systemic / in life observation / body weight / body weight gain + systemic / in life observation / food consumption / food consumption.
The test system of data set [7] is rat. The settings on record: Sub-acute repeat dose toxicity, fischer, Oral, Water, dose end: 14 day, group: systemic.
Data set [8] concerns rat. The conditions noted are these: Carcinogenicity; fischer; Oral; Water; dose end: 103 week; group: systemic; systemic / pathology microscopic / liver / neoplastic nodule + systemic / pathology microscopic / liver / cellular alteration + systemic / ….
For data set [9], the system named is mouse. The settings on record: Carcinogenicity, b6c3f1, Oral, Water, dose end: 103 week, group: systemic.
Data set [10] relates to mouse. The conditions noted are these: Sub-acute repeat dose toxicity, b6c3f1, Oral, Water, dose end: 14 day, group: systemic.
The subject of data set [11] is rat. The conditions noted are these: Subchronic oral toxicity in rodents, fischer, Water, dose end: 13 week, group: systemic.
Data set [12] has as its system mouse. The settings on record: Subchronic oral toxicity in rodents, b6c3f1, Water, dose end: 13 week, group: systemic.
Data set [13] deals with mouse. The conditions noted are these: Subchronic oral toxicity in rodents, cd1, Gavage/Intubation, dose end: 3 month, group: systemic.
Data set [14] deals with rat. The settings on record: Chronic toxicity, sprague dawley, Oral, Gavage/Intubation, dose end: 6 month, group: systemic.
The subject of data set [15] is dog. The conditions noted are these: Sub-acute repeat dose toxicity; beagle; Oral; Gavage/Intubation; dose end: 4 week; group: systemic; systemic / in life observation / body weight / body weight gain + systemic / in life observation / clinical signs / abnormal feces + ….
The subject of data set [16] is dog. The settings on record: Chronic toxicity, beagle, Oral, Gavage/Intubation, dose end: 6 month, group: systemic.
Data set [17] deals with rat. The conditions noted are these: Fertility (Segment I), sprague dawley, Oral, Gavage/Intubation, dose end: 7 GD, group: parental.
Data set [18] concerns rabbit. The conditions noted are these: Prenatal developmental toxicity study, new zealand white, Oral, Gavage/Intubation, dose end: 18 GD.
Data set [19] relates to rat. The conditions noted are these: Sub-acute repeat dose toxicity, sprague dawley, Oral, Gavage/Intubation, dose end: 4 week, group: systemic.
Data set [20] concerns rabbit. The conditions noted are these: Prenatal developmental toxicity study, new zealand white, Oral, Gavage/Intubation, dose end: 18 GD. This is another data set of the same source.
Data set [21] has as its system rat. The conditions noted are these: Prenatal developmental toxicity study; sprague dawley; Oral; Gavage/Intubation; dose end: 17 GD; group: maternal; systemic / in life observation / body weight / body weight gain.
Data set [22] deals with rat. The conditions noted are these: Prenatal developmental toxicity study; sprague dawley; Oral; Gavage/Intubation; dose end: 17 GD; group: maternal; systemic / in life observation / body weight / body weight + systemic / in life observation / food consumption / food consumption.
Where [23] appears, read: systemic / in life observation / body weight / body weight + systemic / pathology microscopic / kidney / hyperplasia + systemic / pathology ….
[24] abbreviates: systemic / pathology microscopic / intestine small / pigmentation + systemic / pathology microscopic / kidney / hemosiderosis + systemic / ….
Where [25] appears, read: systemic / organ weight / kidney / absolute + systemic / organ weight / kidney / relative to body weight + systemic / organ weight / liver….
Setting [26] is: systemic / pathology microscopic / intestine small / pigmentation + systemic / pathology microscopic / stomach / acanthosis + systemic / ….
Where [27] appears, read: systemic / in life observation / body weight / body weight + systemic / in life observation / body weight / body weight gain + systemic / in….
[28] abbreviates: systemic / in life observation / water consumption / water consumption.
Setting [29] is: systemic / pathology microscopic / kidney / nephropathy.
The mark [30] stands for this setting: systemic / pathology microscopic / kidney / nephropathy + systemic / pathology microscopic / blood / lymphoma nos.
Where [31] appears, read: systemic / in life observation / body weight / body weight gain + systemic / in life observation / water consumption / water consumption + ….
[32] abbreviates: systemic / in life observation / body weight / body weight + systemic / in life observation / water consumption / water consumption + ….
The mark [33] stands for this setting: systemic / in life observation / body weight / body weight + systemic / pathology microscopic / liver / hyperplasia + systemic / pathology ….
The mark [34] stands for this setting: systemic / clinical chemistry / alanine aminotransferase (alt/sgpt) / alanine aminotransferase (alt/sgpt) + systemic / clinical chemistry / ….
Setting [35] is: systemic / in life observation / clinical signs / abnormal feces + systemic / in life observation / clinical signs / body surface staining….
The mark [36] stands for this setting: systemic / clinical chemistry / triglycerides / triglycerides + systemic / in life observation / body weight / body weight gain + systemic….
[37] abbreviates: systemic / in life observation / body weight / body weight gain + systemic / in life observation / clinical signs / [other] + systemic / in ….
[38] abbreviates: systemic / in life observation / clinical signs / emesis + systemic / in life observation / clinical signs / salivation.
Setting [39] is: systemic / in life observation / body weight / body weight gain + systemic / in life observation / clinical signs / anogenital staining + ….
The mark [40] stands for this setting: systemic / in life observation / body weight / body weight gain + systemic / in life observation / clinical signs / red or crusty deposits ….
[41] abbreviates: group: developmental, developmental / developmental malformation / bone / incomplete ossification + systemic / in life observation / body weight / fetal weight.
The mark [42] stands for this setting: group: maternal, systemic / in life observation / body weight / body weight + systemic / in life observation / body weight / body weight gain + systemic / in….
[43] abbreviates: systemic / in life observation / body weight / body weight gain + systemic / in life observation / clinical signs / abnormal respiratory ….
Setting [44] is: group: developmental, systemic / in life observation / body weight / fetal weight.
The mark [45] stands for this setting: group: maternal, systemic / in life observation / body weight / body weight gain + systemic / in life observation / food consumption / food consumption.

Some results are limits rather than exact numbers.

Consider `Cl.Cl.Nc1ccc(O)c(N)c1` [2,4-Diaminophenol dihydrochloride], for which the lowest observed adverse effect level (LOAEL) in the data set with rat [1] (setting [23]) was found to be 25 mg/kg/day; with mouse [2] (systemic / pathology microscopic / kidney / regeneration), 38 mg/kg/day; in the data set on mouse [3], 19 mg/kg/day; with rat [4] (systemic / organ weight / kidney / relative to body weight + systemic / pathology microscopic / kidney / necrosis) it was 25 mg/kg/day. The NOAEL in the data set on rat [1] (setting [23]) was 12.5 mg/kg/day; with mouse [2] (setting [25]) it was 19 mg/kg/day; with mouse [3] it was less than 19 mg/kg/day; in the data set with rat [4] (systemic / organ weight / kidney / relative to body weight + systemic / pathology microscopic / kidney / necrosis + systemic / in life …) it was 12 mg/kg/day. The LEL with rat [1] (setting [24]) was 12.5 mg/kg/day; with mouse [2] (setting [25]) it was 5 mg/kg/day; in the data set on mouse [3], 19 mg/kg/day; in the data set with rat [4] (setting [26]), 12 mg/kg/day. Also, the NEL in the data set with rat [1] (setting [24]) was less than 12.5 mg/kg/day; in the data set with mouse [2] (setting [25]), less than 5 mg/kg/day; in the data set on mouse [3], less than 19 mg/kg/day; with rat [4] (setting [26]) it was less than 12 mg/kg/day.

Turning to `CC(O)CSS(C)(=O)=O` (stereo unspecified) [2-Hydroxypropyl methanethiosulfonate], in the data set on rat [5], the LEL is 10 mg/kg/day, the LOAEL was found to be 10 mg/kg/day, the NEL was less than 10 mg/kg/day and the NOAEL is less than 10 mg/kg/day. In the data set with rat [6], the LEL is 100 mg/kg/day, the LOAEL was 100 mg/kg/day, the NEL was less than 100 mg/kg/day and the NOAEL was less than 100 mg/kg/day.

As for `Cl.Cl.Nc1ccc(Cc2ccc(N)cc2)cc1` [4,4'-Methylenedianiline dihydrochloride], the LOAEL stood at 40 mg/kg/day with rat [7] (setting [27]); 9 mg/kg/day with rat [8]; 19 mg/kg/day in the data set with mouse [9] (setting [29]); 120 mg/kg/day in the data set on mouse [10] (systemic / in life observation / body weight / body weight gain + systemic / in life observation / water consumption / water consumption); 20 mg/kg/day with rat [11] (setting [32]); 60 mg/kg/day in the data set with mouse [12] (setting [33]). Also, the NOAEL was 20 mg/kg/day in the data set with rat [7] (setting [27]); less than 9 mg/kg/day in the data set with rat [8]; less than 19 mg/kg/day in the data set with mouse [9] (setting [29]); 60 mg/kg/day in the data set on mouse [10] (setting [31]); 10 mg/kg/day in the data set on rat [11] (setting [32]); 30 mg/kg/day with mouse [12] (setting [33]). Besides, the LEL in the data set with rat [7] (setting [28]) stood at 10 mg/kg/day; with rat [8] it was 9 mg/kg/day; with mouse [9] (setting [30]) it was 19 mg/kg/day; with mouse [10] (setting [31]) it was 120 mg/kg/day; in the data set on rat [11] (setting [28]), 10 mg/kg/day; in the data set with mouse [12] (setting [28]) it was 3.75 mg/kg/day. Also, the NEL is less than 10 mg/kg/day in the data set on rat [7] (setting [28]); less than 9 mg/kg/day in the data set with rat [8]; less than 19 mg/kg/day in the data set with mouse [9] (setting [30]); 60 mg/kg/day with mouse [10] (setting [31]); 5 mg/kg/day in the data set with rat [11] (setting [32]); less than 3.75 mg/kg/day in the data set on mouse [12] (setting [28]).

Turning to `CN1CCN(Cc2cc(-c3ccc4[nH]c(=O)oc4c3)co2)[C@@H](c2ccc(F)cc2)C1.Cl.O` [AVE8488], the LOAEL in the data set on mouse [13] (setting [34]) is greater than 2000 mg/kg/day; with rat [14] (setting [36]), 7 mg/kg/day; in the data set with dog [15], 20 mg/kg/day; in the data set with dog [16] (systemic / in life observation / clinical signs / emesis + systemic / in life observation / clinical signs / salivation + systemic / …), 20 mg/kg/day; in the data set on rat [17] (setting [39]), greater than 150 mg/kg/day; with rabbit [18] (setting [41]), 150 mg/kg/day. Further, the LOAEL in the data set on rabbit [18] (setting [42]) worked out at 150 mg/kg/day; with rat [19] (setting [43]), 50 mg/kg/day; in the data set with rabbit [20] (setting [44]), 100 mg/kg/day; in the data set on rabbit [20] (setting [45]), 100 mg/kg/day; in the data set with rat [21], 25 mg/kg/day; in the data set with rat [22] it was 10 mg/kg/day. Also, the NOAEL in the data set on mouse [13] (setting [34]) is no less than 2000 mg/kg/day; in the data set on rat [14] (setting [36]), 1 mg/kg/day; with dog [15], 5 mg/kg/day; with dog [16] (systemic / in life observation / clinical signs / emesis + systemic / clinical chemistry / albumin / albumin + systemic / clinical chemistry…), 5 mg/kg/day; in the data set with rat [17] (setting [39]), no less than 150 mg/kg/day; with rabbit [18] (setting [41]) it was 50 mg/kg/day. Further, the NOAEL in the data set with rabbit [18] (setting [42]) was 50 mg/kg/day; in the data set with rat [19] (setting [43]) it was 5 mg/kg/day; in the data set with rabbit [20] (setting [44]), 50 mg/kg/day; in the data set on rabbit [20] (setting [45]), 50 mg/kg/day; in the data set on rat [21], 3.7 mg/kg/day; with rat [22], 1 mg/kg/day. Also, the LEL came out at 50 mg/kg/day in the data set with mouse [13] (setting [35]); 1 mg/kg/day in the data set with rat [14] (setting [37]); 20 mg/kg/day in the data set on dog [15]; 1 mg/kg/day in the data set with dog [16] (setting [38]); 1 mg/kg/day in the data set with rat [17] (setting [40]); 150 mg/kg/day with rabbit [18] (setting [41]). Besides, the LEL with rabbit [18] (setting [42]) worked out at 150 mg/kg/day; in the data set with rat [19] (systemic / clinical chemistry / triglycerides / triglycerides + systemic / in life observation / body weight / body weight gain), 5 mg/kg/day; in the data set with rabbit [20] (setting [44]), 100 mg/kg/day; in the data set with rabbit [20] (setting [45]), 100 mg/kg/day; in the data set with rat [21] it was 3.7 mg/kg/day; in the data set with rat [22], 10 mg/kg/day. The NEL in the data set on mouse [13] (setting [35]) was less than 50 mg/kg/day; with rat [14] (setting [37]), less than 1 mg/kg/day; in the data set on dog [15] it was 5 mg/kg/day; with dog [16] (setting [38]), less than 1 mg/kg/day; in the data set with rat [17] (setting [40]), less than 1 mg/kg/day; in the data set with rabbit [18] (setting [41]), 50 mg/kg/day. Moreover, the NEL in the data set with rabbit [18] (setting [42]) stood at 50 mg/kg/day; in the data set on rat [19] (setting [36]), 0.25 mg/kg/day; in the data set with rabbit [20] (setting [44]), 50 mg/kg/day; with rabbit [20] (setting [45]), 50 mg/kg/day; in the data set on rat [21], 0.79 mg/kg/day; with rat [22], 1 mg/kg/day.

A word on the LOAEL: it is the lowest dose or exposure tested at which an adverse effect was seen. Usually NOAEL stands for the highest dose or exposure tested at which no adverse effect was seen.

Values taken from EPA's ToxRefDB 2.
